Earlier results as cited in PMC9516332 (Frontiers in Oncology, 2022).
Read-outs that look alike come from different tables or passages of the source.

Experiments:
[1] = target: panel of 255 wild-type kinases (Homo sapiens, UniProt Q00535); settings: CDK5/p25 kinase assay, 1 µmol/L single concentration, cited from earlier work
[2] = target: panel of 255 wild-type kinases (Homo sapiens, UniProt P68400); settings: kinase CK2α1/β, 1 µmol/L single concentration, cited from earlier work
[3] = target: T1, panel of 255 wild-type kinases (Homo sapiens, UniProt Q13237); settings: CGK2 kinase assay, 1 µmol/L single concentration, cited from earlier work
T1 sequence (Q13237 1-762): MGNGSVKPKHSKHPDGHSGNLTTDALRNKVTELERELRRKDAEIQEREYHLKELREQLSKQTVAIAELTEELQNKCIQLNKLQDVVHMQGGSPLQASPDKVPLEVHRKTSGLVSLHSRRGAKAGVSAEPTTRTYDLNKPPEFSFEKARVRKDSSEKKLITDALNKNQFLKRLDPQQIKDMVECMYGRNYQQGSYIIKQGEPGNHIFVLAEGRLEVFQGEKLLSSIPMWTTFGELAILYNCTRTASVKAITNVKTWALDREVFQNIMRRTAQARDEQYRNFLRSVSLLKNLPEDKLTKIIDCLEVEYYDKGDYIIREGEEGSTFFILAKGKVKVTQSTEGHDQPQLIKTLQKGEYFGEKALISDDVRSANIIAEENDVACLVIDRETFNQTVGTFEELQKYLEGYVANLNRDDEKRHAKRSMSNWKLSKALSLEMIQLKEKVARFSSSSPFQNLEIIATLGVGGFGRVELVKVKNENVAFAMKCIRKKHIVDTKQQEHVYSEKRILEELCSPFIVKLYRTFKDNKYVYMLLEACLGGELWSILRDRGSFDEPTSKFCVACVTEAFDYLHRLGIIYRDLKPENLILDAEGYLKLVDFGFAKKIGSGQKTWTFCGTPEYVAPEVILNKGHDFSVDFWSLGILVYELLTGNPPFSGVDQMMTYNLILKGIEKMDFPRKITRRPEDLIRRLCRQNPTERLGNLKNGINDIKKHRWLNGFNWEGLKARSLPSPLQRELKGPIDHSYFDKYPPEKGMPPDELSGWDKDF

[4] = target: panel of 255 wild-type kinases (Homo sapiens, UniProt Q8IY84); settings: NIM1K; 1 µmol/L single concentration; ref DOI: 10.1158/1535-7163.MCT-18-0877; cited from earlier work
[5] = target: panel of 255 wild-type kinases (Homo sapiens, UniProt P08069); settings: kinase IGF1R, 1 µmol/L single concentration, cited from earlier work
[6] = target: panel of 255 wild-type kinases (Homo sapiens, UniProt P19784); settings: kinase CK2α2/β, 1 µmol/L single concentration, cited from earlier work
[7] = target: T2, panel of 255 wild-type kinases (Homo sapiens, UniProt Q08881); settings: kinase ITK, 1 µmol/L single concentration, cited from earlier work
T2 sequence (Q08881 1-620): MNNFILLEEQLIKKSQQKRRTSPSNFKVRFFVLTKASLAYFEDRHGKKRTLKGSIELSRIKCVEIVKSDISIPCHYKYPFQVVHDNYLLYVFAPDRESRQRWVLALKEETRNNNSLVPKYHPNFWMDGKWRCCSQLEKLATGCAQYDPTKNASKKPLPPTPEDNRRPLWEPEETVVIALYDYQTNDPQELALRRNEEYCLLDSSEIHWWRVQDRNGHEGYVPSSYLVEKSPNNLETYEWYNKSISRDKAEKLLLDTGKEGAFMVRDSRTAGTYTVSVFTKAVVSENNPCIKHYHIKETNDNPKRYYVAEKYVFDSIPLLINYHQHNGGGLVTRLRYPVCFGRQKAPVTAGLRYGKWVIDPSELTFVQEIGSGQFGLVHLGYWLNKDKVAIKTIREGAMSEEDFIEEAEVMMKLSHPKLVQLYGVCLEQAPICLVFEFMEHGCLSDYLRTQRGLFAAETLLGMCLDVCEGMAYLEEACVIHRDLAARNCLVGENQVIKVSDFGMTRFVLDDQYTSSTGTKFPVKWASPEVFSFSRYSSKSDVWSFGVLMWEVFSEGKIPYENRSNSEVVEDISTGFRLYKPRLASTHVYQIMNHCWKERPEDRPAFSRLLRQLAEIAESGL

[8] = target: T3, panel of 255 wild-type kinases (Homo sapiens, UniProt Q8IW41); settings: MAPKAPK5, 1 µmol/L single concentration, cited from earlier work
T3 sequence (Q8IW41 1-473): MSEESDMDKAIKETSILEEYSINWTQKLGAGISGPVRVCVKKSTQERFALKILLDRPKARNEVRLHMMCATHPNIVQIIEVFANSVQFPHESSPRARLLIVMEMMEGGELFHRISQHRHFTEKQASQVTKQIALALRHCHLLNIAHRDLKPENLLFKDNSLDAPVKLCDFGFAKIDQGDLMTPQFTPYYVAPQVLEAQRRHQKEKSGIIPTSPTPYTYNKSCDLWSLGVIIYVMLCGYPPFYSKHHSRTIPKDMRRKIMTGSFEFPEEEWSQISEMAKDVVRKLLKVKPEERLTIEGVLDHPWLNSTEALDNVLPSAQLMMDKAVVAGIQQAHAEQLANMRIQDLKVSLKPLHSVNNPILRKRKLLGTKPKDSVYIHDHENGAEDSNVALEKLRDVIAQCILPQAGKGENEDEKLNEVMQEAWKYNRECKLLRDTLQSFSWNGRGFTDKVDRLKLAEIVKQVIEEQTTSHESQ

[9] = target: panel of 255 wild-type kinases (Homo sapiens, UniProt P29597); settings: kinase TYK2, 1 µmol/L single concentration, cited from earlier work
[10] = target: panel of 255 wild-type kinases (Homo sapiens, UniProt P07947); settings: kinase YES, 1 µmol/L single concentration, cited from earlier work
[11] = ref DOI: 10.1158/1535-7163.MCT-18-0877
[12] = ref DOI: 10.1371/journal.pone.0092146

Row | Structure (SMILES) | %-inhibition CDK5/p25 [1, 11] [%] | %-inhibition at 1 µmol/L, CK2α1/β [2, 11] [%] | %-inhibition CGK2 [3, 11] [%] | %-inhibition, NIM1K [4] [%] | %-inhibition at 1 µmol/L, IGF1R [5, 11] [%] | %-inhibition at 1 µmol/L, CK2α2/β [6, 11] [%] | %-inhibition at 1 µmol/L, ITK [7, 11] [%] | %-inhibition, MAPKAPK5 [8, 11] [%] | %-inhibition at 1 µmol/L, TYK2 [9, 11] [%] | %-inhibition CDK5/p25 [1, 12] [%] | %-inhibition at 1 µmol/L, YES [10, 12] [%] | %-inhibition at 1 µmol/L, CK2α1/β [2, 12] [%] | %-inhibition CGK2 [3, 12] [%] | %-inhibition at 1 µmol/L, IGF1R [5, 12] [%] | %-inhibition at 1 µmol/L, CK2α2/β [6, 12] [%] | %-inhibition at 1 µmol/L, ITK [7, 12] [%] | %-inhibition, MAPKAPK5 [8, 12] [%] | %-inhibition at 1 µmol/L, TYK2 [9, 12] [%] | %-inhibition at 1 µmol/L, YES [10, 11] [%]
1 | C=CC(=O)N1CCC[C@@H](n2nc(-c3ccc(Oc4ccccc4)cc3)c3c(N)ncnc32)C1 [ibrutinib] | -5 | -11 | -1.77 | -2.33 | 7.45 | -7 | 93 | -2.44 | 7 |  |  |  |  |  |  |  |  |  | 
2 | CC(=O)Nc1cccc(-n2c(=O)n(C3CC3)c(=O)c3c(Nc4ccc(I)cc4F)n(C)c(=O)c(C)c32)c1 [trametinib] |  |  |  |  |  |  |  |  |  | 19 | -1.63 | -3.4 | -2.61 | -10 | -5.29 | -7.56 | -2.22 | 2.16 | 
3 | Cc1cc(Nc2ncc(Cl)c(Nc3ccccc3S(=O)(=O)C(C)C)n2)c(OC(C)C)cc1C1CCNCC1 [ceritinib] | -22 | -8 | 14 | -1.37 | 103 | -6 | 11 | -2.68 | 13 |  |  |  |  |  |  |  |  |  | 31
4 | C[C@@H](Oc1cc(-c2cnn(C3CCNCC3)c2)cnc1N)c1c(Cl)ccc(F)c1Cl [crizotinib] |  |  |  |  |  |  |  |  |  | -8 | 65 | -6.39 | -0.915 | 80 | -10 | 63 | -3.19 | 21 | 
5 | C=CC(=O)Nc1cc(Nc2nccc(-c3cn(C)c4ccccc34)n2)c(OC)cc1N(C)CCN(C)C [osimertinib] | -0.719 | 12 | 11 | -10 | 84 | 16 | 62 | 0.814 | 9 |  |  |  |  |  |  |  |  |  | 13
6 | CCCS(=O)(=O)Nc1ccc(F)c(C(=O)c2c[nH]c3ncc(-c4ccc(Cl)cc4)cc23)c1F [vemurafenib] |  |  |  |  |  |  |  |  |  | 5 | 74 | -5.39 | -2.26 | 10 | -6.56 | 3 | 12 | 6 | 
7 | CC(C)(C)c1nc(-c2cccc(NS(=O)(=O)c3c(F)cccc3F)c2F)c(-c2ccnc(N)n2)s1 [dabrafenib] |  |  |  |  |  |  |  |  |  | 22 |  |  | -1.38 |  |  | 49 |  | 10 | 
8 | CO[C@@H]1[C@H](N(C)C(=O)c2ccccc2)C[C@H]2O[C@]1(C)n1c3ccccc3c3c4c(c5c6ccccc6n2c5c31)C(=O)NC4 [midostaurin] |  | -5.6 |  | 1.15 | 24 | 2 | 73 | -2 |  |  |  |  |  |  |  |  |  |  | 89
9 | CCc1cc2c(cc1N1CCC(N3CCOCC3)CC1)C(C)(C)c1[nH]c3cc(C#N)ccc3c1C2=O [alectinib] | -12 | -3.18 | 7.53 | -2.13 | 10 | -3 |  | -2.38 | 14 |  |  |  |  |  |  |  |  |  | 44
